The source of these data is PMC12661400, “Oral bioavailable ITRI-148 degrades androgen receptor variants and overcomes antiandrogen resistance in advanced prostate cancer” (Neoplasia (New York, N.Y.), 2025).

Common to all, as to type: cell-based
The subject of one assay is AR. Put plainly: AR degradation by immunoblotting in CRPC cells. The protocol: (§1) Cell lysis, Western blotting, and AR ubiquitination were performed as described in [17]. Primary antibodies: AR (Millipore 06-680), AR-V7 (RevMAb Biosciences 31-1109-00), PSA (ABclonal A4355), NKX3-1 (Cell Signaling Technology 92998), GAPDH (Cell Signaling Technology 2118) and β-Actin (Sigma-Aldrich A5441).
(§2) Fig. 1 ITRI-148 induces degradation of both AR and AR-V7 proteins in CRPC cells. […] (B) Expression of Flag-tagged AR-V7 in 293T cells following ITRI-148 treatment. Cells transiently expressing Flag-AR-V7 were pretreated with 50 μg/mL cycloheximide for 1 hour, then exposed to ITRI-148 at the indicated concentrations for 8 hours. AR-V7 expression was detected using an anti-Flag antibody. (C) Representative immunoblots showing AR protein levels in VCaP and CWR22Rv1 cells after 48 hours of ITRI-148 treatment. An N-terminal AR antibody was used to detect both full-length AR and LBD-truncated variants (AR-V(ΔLBD)) in CWR22Rv1 cells, while AR-V7 was detected using an AR-V7-specific antibody. DC₅₀ values were calculated from normalized band intensities, and Dₘₐₓ represents the maximal degradation achieved at 10 μM ITRI-148. (D) Immunofluorescence staining of AR after 24 or 48 hours of ITRI-148 treatment, detected using an N-terminal AR antibody. […] (F) Western blot analysis of ectopically expressed wild-type (WT) and mutant Myc-tagged AR in DU145 cells following 24 hours of treatment with 10 μM ITRI-148. Quantified AR levels are as indicated. TEXT PRINTED IN THE PICTURE: (C) ITRI-148: DC50 (μM) AR CWR22Rv1: 1.23 ± 1.86; DC50 (μM) AR VCaP: 0.05 ± 0.03; DC50 (μM) AR-V7 CWR22Rv1: 1.20 ± 0.92; DC50 (μM) AR-V7 VCaP: 0.02 ± 0.02; Dmax (%) AR CWR22Rv1: 65.02 ± 19.91; Dmax (%) AR VCaP: 80.49 ± 5.61; Dmax (%) AR-V7 CWR22Rv1: 72.10 ± 3.15; Dmax (%) AR-V7 VCaP: 91.36 ± 2.05
For orientation: A western blot detects proteins with antibodies after separation by electrophoresis.

The next assay deals with T1, AR(H875Y) (Homo sapiens, UniProt P10275, H875Y).
T1 construct: expressed in transfected cells; host or cells: DU145
T1 sequence (P10275 1-920 H875Y): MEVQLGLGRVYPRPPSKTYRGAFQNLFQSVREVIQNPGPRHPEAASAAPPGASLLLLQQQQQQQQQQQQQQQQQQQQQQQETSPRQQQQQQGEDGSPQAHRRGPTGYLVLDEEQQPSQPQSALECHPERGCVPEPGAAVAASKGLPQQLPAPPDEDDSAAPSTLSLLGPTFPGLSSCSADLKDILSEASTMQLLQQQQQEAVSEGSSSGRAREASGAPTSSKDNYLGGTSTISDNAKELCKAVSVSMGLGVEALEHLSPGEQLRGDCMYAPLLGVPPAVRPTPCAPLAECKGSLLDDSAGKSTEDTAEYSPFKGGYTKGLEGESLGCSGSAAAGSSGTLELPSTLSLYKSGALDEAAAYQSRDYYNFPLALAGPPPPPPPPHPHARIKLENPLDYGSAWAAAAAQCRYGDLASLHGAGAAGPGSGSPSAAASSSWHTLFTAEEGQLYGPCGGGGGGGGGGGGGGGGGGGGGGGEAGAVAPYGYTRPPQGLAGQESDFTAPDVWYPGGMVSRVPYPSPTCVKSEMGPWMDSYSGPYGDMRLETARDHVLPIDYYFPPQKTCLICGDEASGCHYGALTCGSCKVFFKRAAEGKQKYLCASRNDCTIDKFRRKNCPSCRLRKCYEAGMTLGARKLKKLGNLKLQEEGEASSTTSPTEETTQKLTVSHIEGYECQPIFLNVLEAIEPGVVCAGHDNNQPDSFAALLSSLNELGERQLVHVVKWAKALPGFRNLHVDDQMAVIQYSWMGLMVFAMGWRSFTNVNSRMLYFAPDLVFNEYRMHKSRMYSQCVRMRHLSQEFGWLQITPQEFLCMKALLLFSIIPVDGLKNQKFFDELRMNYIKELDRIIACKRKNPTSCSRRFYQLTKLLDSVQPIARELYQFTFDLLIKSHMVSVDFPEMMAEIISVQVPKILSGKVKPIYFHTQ
Put plainly: Degradation of ectopic Myc-tagged AR mutant in DU145 cells (western blot). To be noted: 10 μM, 24 hours. An excerpt: pLenti4/TO/Flag-AR and pLenti4/TO/Flag-AR(∆LBD) plasmids are as described previously. To generate pLenti4/TO/Flag-AR-V7 plasmid, the DNA fragment of AR-V7 was amplified from pEGFP-C1-AR V7, a gift from Michael A Mancini (Addgene plasmid # 86856), and inserted into the pLenti4/TO plasmid carrying a N-terminal Flag tag between BamH1 and XhoI. The AR(L702H) and AR(H875Y) mutants were generated by site-directed mutagenesis of pCMV-Myc-AR, which is previously constructed and described in [22]. Primers used in the cloning and mutagenesis are: […]
Cell lysis, Western blotting, and AR ubiquitination were performed as described in [17]. […]
Fig. 1 ITRI-148 induces degradation of both AR and AR-V7 proteins in CRPC cells. […] AR-V7 expression was detected using an anti-Flag antibody. […] An N-terminal AR antibody was used to detect both full-length AR and LBD-truncated variants (AR-V(ΔLBD)) in CWR22Rv1 cells, while AR-V7 was detected using an AR-V7-specific antibody. DC₅₀ values were calculated from normalized band intensities, and Dₘₐₓ represents the maximal degradation achieved at 10 μM ITRI-148. (D) Immunofluorescence staining of AR after 24 or 48 hours of ITRI-148 treatment, detected using an N-terminal AR antibody. […] Quantified AR levels are as indicated. […]

Another assay addresses T2, AR-V7 (Homo sapiens, UniProt P10275).
T2 construct: endogenous in cells; host or cells: VCaP, CWR22Rv1
T2 sequence (P10275 1-644 isoform P10275-3): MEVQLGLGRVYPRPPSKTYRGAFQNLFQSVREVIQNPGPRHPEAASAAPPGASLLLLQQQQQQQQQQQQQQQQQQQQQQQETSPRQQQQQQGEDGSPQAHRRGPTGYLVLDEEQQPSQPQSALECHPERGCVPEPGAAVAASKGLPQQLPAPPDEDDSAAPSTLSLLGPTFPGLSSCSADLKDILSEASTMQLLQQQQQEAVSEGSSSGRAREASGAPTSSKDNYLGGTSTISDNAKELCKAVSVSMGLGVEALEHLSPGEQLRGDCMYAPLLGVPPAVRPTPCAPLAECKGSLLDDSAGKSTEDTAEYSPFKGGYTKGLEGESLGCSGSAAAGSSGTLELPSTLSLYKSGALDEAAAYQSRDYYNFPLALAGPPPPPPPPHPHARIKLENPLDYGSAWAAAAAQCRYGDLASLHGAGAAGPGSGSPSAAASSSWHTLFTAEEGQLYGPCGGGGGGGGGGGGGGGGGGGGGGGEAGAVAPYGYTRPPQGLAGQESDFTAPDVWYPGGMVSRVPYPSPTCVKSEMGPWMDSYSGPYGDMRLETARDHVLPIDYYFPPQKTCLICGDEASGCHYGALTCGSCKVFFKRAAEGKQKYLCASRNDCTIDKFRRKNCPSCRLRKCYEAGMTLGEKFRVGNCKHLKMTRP
Put plainly: AR-V7 degradation by immunoblotting in CRPC cells. The protocol:
as §1, §2

The mark [1] stands for this setting: VCaP, maximal degradation at 10 μM.

Several values for one entry are separate records, joined by “and”; a condition that tells them apart may be missing. Equal values may be shown once. Read-outs that look alike come from different tables or passages of the source.

The term Dmax denotes the largest share of the target that was removed. Low values mean shallow degradation, high ones deep degradation. Consider `O=C1CCC(N2C(=O)c3cccc(NCC(=O)N4CCC(N5CCC(C#Cc6ccc(C7CCN(C8=Nn9c(nnc9C(F)(F)F)CC8)CC7)cc6)CC5)CC4)c3C2=O)C(=O)N1` (stereo not drawn) [ITRI-148], for which the DC50 in the assay on AR (CWR22Rv1, 48 hours, read-out: DC50 AR) is 1230 ± 1860 nM; in the assay on AR (VCaP cells, read-out: half-maximal degradation concentration (DC50) for AR), roughly 50 nM; in the assay on AR (VCaP, 48 hours, read-out: DC50 AR), 50 ± 30 nM; on AR-V7 (CWR22Rv1, 48 hours, read-out: DC50 AR-V7), 1200 ± 920 nM; at AR-V7 (VCaP cells, read-out: half-maximal degradation concentration (DC50) for AR-V7), roughly 20 nM; at AR-V7 (VCaP, 48 hours, read-out: DC50 AR-V7) it was 20 ± 20 nM. Further, the “Dmax AR” value was 65.02 ± 19.91% in the assay with AR (CWR22Rv1, maximal degradation at 10 μM); 80.49 ± 5.61% and 80% with AR (setting [1]). Further, the “degradation of Myc-tagged AR mutant H875Y” value on AR(H875Y) is recorded as “degraded”. Further, the Dmax at 10 µM was found to be 72.1 ± 3.15% on AR-V7 (CWR22Rv1, CWR22Rv1, maximal degradation at 10 μM) and 91.4 ± 2.05% on AR-V7 (setting [1]). At AR-V7 (setting [1]), the “Dmax AR-V7” value turned out to be 91%.
